Data from article PMC9573696, “Experimental Examination of Solubility and Lipophilicity as Pharmaceutically Relevant Points of Novel Bioactive Hybrid Compounds” (Molecules, 2022).
Converted amounts (≈) assume the structure as drawn.

Tests used:
C. glabrata 61L = assay: In vitro antifungal activity, microbroth dilution (MIC); type: cell-based; settings: Nakaseomyces glabratus; C. glabrata 61L; 35 °C, 24 h; read-out: MIC
Description: (§1) The in vitro antifungal screening results of synthesized compounds was evaluated against three fungal strains: C. parapsilosis ATCC 22019, C. utilis 84, and C. glabrata 61L are summarized in Table 1.
(§2) The in vitro antifungal activity of the target compounds was measured by means of the minimal inhibitory concentrations (MIC) with fluconazole as the control drug. Procedure was carried out by the microbroth dilution method in 96-well plates according to the recommendations of the Clinical and Laboratory Standards Institute. The detailed information was reported previously. The investigated pathogenic species included C. parapsilosis ATCC 22019, C. utilis 84 and C. glabrata 61. The sensitivity was evaluated visually, after the incubation at 35 °C for 24 h and the value was compared with the growth density in the reference culture without the sample. Each test was conducted in triplicate.

[1] = tested on: C. parapsilosis ATCC 22019; assay: as above; type: cell-based; settings: C. parapsilosis ATCC 22019
Description: as §1, §2

C. utilis 84 = assay: as above; type: cell-based; settings: C. utilis 84
Description: as §1, §2

[2] = Apparent thermodynamic functions of dissolution (van't Hoff); type: physicochemical; settings: Thm = 302.98 K
Excerpt: The dissolution of the new hybrids was characterized based on apparent thermodynamic parameters obtained from temperature dependences of solubility of the studied compounds in the selected solvents (Figure 6). […] The van’t Hoff enthalpy of dissolution can be expressed as the inclination of a tangent to a solubility curve plotted as lnx vs. (1/T − 1/Thm) by Equation (6): (6) ΔHsolo=−R(∂lnx/∂(1/T−1/Thm))=−R⋅slope where R = 8.314 J⋅K^−1·mol^−1 is the universal gas constant. Thm = 302.98 K denotes the mean harmonic temperature, which was calculated by Equation (7):(7) Thm=n/∑i=1n1/Ti where n represented the number of experimental temperatures. The apparent standard Gibbs energy was evaluated by Equation (8):(8) ΔGsolo=−RThm×intersept
The apparent standard solution entropies were obtained from the well-known relationship:(9) ΔSsolo=ΔHsolo−ΔGsolo/Thm
The calculated apparent thermodynamic solubility functions of dissolution (Gibbs energy, enthalpy, and entropy) at standard temperature 298.15 K for hybrid compounds were collected in Table 4.

[3] = Partition in system 1-octanol/buffer pH 7.4, shake-flask method; type: physicochemical; settings: for logP at 2 days / logD at 2 days: 1-octanol/buffer pH 7.4, pH 7.4, 1-octanol/buffer pH 7.4; for logP at 2 days: from concentrations in mole fraction; for logD at 2 days / logPo/b: from concentrations in mol∙L^−1; for sb × 10^5 (concentration in buffer) / so × 10^3 (concentration in 1-octanol) / xb × 10^7 (mole fraction in buffer) / xo × 10^4 (mole fraction in 1-octanol) / logPo/b: 1-octanol/buffer pH 7.4
Description: The partition coefficients of the new hybrid compounds in the model system 1-octanol/buffer pH 7.4 as a lipophilicity surrogate were determined experimentally. […] It is the lipophilic properties that allow the hybrids to move from the water phase to the less hydrophilic octanol phase, where the solute–solvent intermolecular interactions are more favourable. According to the results shown in Table 5, the order of changes in the partition coefficients logPo/b at T = 298.15 K, depending on the substituent nature, is expressed as the inequality: Cl- (1.65) < F- (2.40) < CH3- (2.50). Compounds I and II are the most lipophilic in the series of the studied substances, whereas the introduction of a chlorine atom considerably lowers the partition coefficient (~0.8 log units). This fact agrees with the common concept that lipophilic groups are usually hydrocarbon or fluorine-containing radicals. […] For drugs with such partition coefficients, there is a good balance between the solubility and permeability through passive diffusion and minimum metabolism due to the low binding capacity with enzymes.
The octanol/buffer pH 7.4 partition coefficient logPO/B is measured in a static mode using the shake-flask method. The procedure has been presented as standard in the Organization for Economic Cooperation and Development (OECD) guidelines for testing chemicals. The equipment described above was also used for the determination of the 1-octanol/water partition coefficients. […] The correctness of the obtained value of each compound was verified by checking the mass balance of the starting amount of the compound and the total amount of the compound partitioned between the two phases.
To aim evaluated transfer (partition) thermodynamic functions, the 1-octanol/buffer partition coefficients P^* o/b as the ratio of equilibrium concentrations in the organic (xo) and aqueous phases (xb) expressed in mole fractions were calculated: P* o/b = xo/xb(12)

[4] = Thermodynamic functions of transfer 1-octanol/buffer pH 7.4; type: physicochemical; settings: 298.15 K
Description: The temperature variation of the partition coefficient provides enthalpic and entropic contributions to the free energy of transfer. The thermodynamic transfer functions for hybrids I–III in the 1-octanol/buffer pH 7.4 system were calculated by Equations (12)–(16) and are summarized in Table 6. The standard Gibbs energy values for all the compounds are negative. Therefore, the transfer from the aqueous medium to the organic phase within the studied temperature range is thermodynamically favourable and spontaneous. The standard transfer enthalpies of all the studied compounds are positive, which means the process is endothermic. Energy is consumed during the transfer to overcome the hydrophobic effects in water (destruction of the molecule solvate shell structure), destruction of the solvent–solute interactions in the aqueous medium and creation of a cavity in the organic phase where the solute molecules can enter.
The standard change in Gibbs free energy of transfer (∆trG^o) from the buffer to the organic phase was calculated by Equation (14):∆trG^o = −RTlnP*o/b(14)
The standard change entropy of transfer (∆trS^o) is determined as follows:∆trS^o = (∆trH^o − ∆trG^o)/T(15)

For `O=c1c2sc(=S)n(-c3ccc(F)cc3)c2ncn1CCCN1CCN(CC(O)(Cn2cncn2)c2ccc(F)cc2F)CC1` (centres unmarked) [II, 6-[3-[4-[2-(2,4-difluorophenyl)-2-hydroxy-3-(1H-1,2,4-triazol-1-yl)propyl]-1-piperazinyl]propyl]-2,3-dihydro-3-(4-fluorophenyl)-2-thioxo-thiazolo[4,5-d]pyrimidin-7(6H)-one], the MIC (C. glabrata 61L) was 4 µg/mL (≈ 6.22 µM), the advantage over fluconazole ([1]; MIC ratio) was 20 fold and the MIC ([1]; Lodderomyces parapsilosis, ATCC22019, 35 °C, 24 h, read-out: MIC) was 0.1 µg/mL (≈ 0.156 µM). The “activity relative to fluconazole” value (C. utilis 84) was 2 times, the MIC (C. utilis 84; Williopsis jadinii, 35 °C, 24 h, read-out: MIC) was 1 µg/mL (≈ 1.56 µM) and the TΔSsolo ([2]; 1-Octanol) was -2.49 kcal/mol. The ΔGsolo ([2]; 1-Octanol) was 4.16 ± 0.072 kcal/mol, the ΔHsolo ([2]; 1-Octanol) was 1.65 ± 0.024 kcal/mol and the ΔSsolo ([2]; 1-Octanol) was −35.1 ± 1.8 J·mol^−1·K^−1. The TΔSsolo ([2]; Buffer pH 2.0) was -1.36 kcal/mol, the ΔGsolo ([2]; Buffer pH 2.0) was 6.36 ± 0.12 kcal/mol and the ΔHsolo ([2]; Buffer pH 2.0) was 5 ± 0.048 kcal/mol. For the same compound, the ΔSsolo ([2]; Buffer pH 2.0) was −19.1 ± 1.1 J·mol^−1·K^−1, the TΔSsolo ([2]; Buffer pH 7.4) was -5.09 kcal/mol and the ΔGsolo ([2]; Buffer pH 7.4) was 7.15 ± 0.14 kcal/mol. For the same compound, the ΔHsolo ([2]; Buffer pH 7.4) was 2.03 ± 0.024 kcal/mol, the ΔSsolo ([2]; Buffer pH 7.4) was −71.4 ± 4.2 J·mol^−1·K^−1 and the logP at 2 days ([3]; 293.15 K) was 3.3. It also gave a logD at 2 days ([3]; 293.15 K) of 2.36, a logP at 2 days ([3]; 298.15 K) of 3.34 and a logP at 2 days ([3]; 303.15 K) of 3.37. It also gave a logD at 2 days ([3]; 303.15 K) of 2.43, a logP at 2 days ([3]; 308.15 K) of 3.41 and a logP at 2 days ([3]; 313.15 K) of 3.45. The logD at 2 days ([3]; 313.15 K) was 2.5, the “sb × 10^5 (concentration in buffer)” value ([3]; 293.15 K) was 1.47 mol∙L^−1 (printed as sb × 10^5 and the “so × 10^3 (concentration in 1-octanol)” value ([3]; 293.15 K) was 3.39 mol∙L^−1 (printed as so × 10^3. For the same compound, the “xb × 10^7 (mole fraction in buffer)” value ([3]; 293.15 K) was 2.67 mole fraction (printed as xb ×, the “xo × 10^4 (mole fraction in 1-octanol)” value ([3]; 293.15 K) was 5.34 mole fraction (printed as xo × and the “sb × 10^5 (concentration in buffer)” value ([3]; 298.15 K) was 1.35 mol∙L^−1 (printed as sb × 10^5. The “so × 10^3 (concentration in 1-octanol)” value ([3]; 298.15 K) was 3.39 mol∙L^−1 (printed as so × 10^3, the “xb × 10^7 (mole fraction in buffer)” value ([3]; 298.15 K) was 2.45 mole fraction (printed as xb × and the “xo × 10^4 (mole fraction in 1-octanol)” value ([3]; 298.15 K) was 5.37 mole fraction (printed as xo ×. For the same compound, the logPo/b ([3]; 298.15 K) was 2.40, the “sb × 10^5 (concentration in buffer)” value ([3]; 303.15 K) was 1.25 mol∙L^−1 (printed as sb × 10^5 and the “so × 10^3 (concentration in 1-octanol)” value ([3]; 303.15 K) was 3.39 mol∙L^−1 (printed as so × 10^3. The “xo × 10^4 (mole fraction in 1-octanol)” value ([3]; 303.15 K) was 5.39 mole fraction (printed as xo ×, the “sb × 10^5 (concentration in buffer)” value ([3]; 308.15 K) was 1.15 mol∙L^−1 (printed as sb × 10^5 and the “so × 10^3 (concentration in 1-octanol)” value ([3]; 308.15 K) was 3.39 mol∙L^−1 (printed as so × 10^3. For the same compound, the “xb × 10^7 (mole fraction in buffer)” value ([3]; 308.15 K) was 2.08 mole fraction (printed as xb ×, the “xo × 10^4 (mole fraction in 1-octanol)” value ([3]; 308.15 K) was 5.42 mole fraction (printed as xo × and the logPo/b ([3]; 308.15 K) was 2.47. The “sb × 10^5 (concentration in buffer)” value ([3]; 313.15 K) was 1.06 mol∙L^−1 (printed as sb × 10^5, the “so × 10^3 (concentration in 1-octanol)” value ([3]; 313.15 K) was 3.39 mol∙L^−1 (printed as so × 10^3 and the “xb × 10^7 (mole fraction in buffer)” value ([3]; 313.15 K) was 1.94 mole fraction (printed as xb ×. The “xo × 10^4 (mole fraction in 1-octanol)” value ([3]; 313.15 K) was 5.44 mole fraction (printed as xo ×, the “T∆trS^o” value [4] was 7.62 ± 0.19 kcal/mol and the “∆trG^o” value [4] was -4.57 ± 0.072 kcal/mol. The “∆trH^o” value [4] was 3.06 ± 0.048 kcal/mol and the “∆trS^o” value [4] was 106.9 ± 2.9 J·mol^−1·K^−1.
